How the values were obtained:
[1] = test system: p-STAT3 (Tyr705) in B16 cells; experiment: p-STAT3 immunoblotting in B16 cells; type: cell-based, murine; details: 4 hours, 5 and 10 μM (FIG. 3A)
Experimental: (§1) Immunoblotting analysis. Murine melanoma B16 cells and splenocytes were used for protein isolation and immunoblotting analysis as described below. B16 cells were seeded at a density of 2×10^6 cells/well in 6-well culture plates and incubated at 37° C., in an atmosphere containing 5% CO2, with the RPMI 1640 medium overnight. Afterward, B16 cells were cultured in the absence or presence of WP1193 (5 μM, 10 μM). After 3.5 hours, the B16 cells were further cultured in the absence or presence of 20 ng/ml of IFN-α for 30 minutes. For the splenocyte preparation, spleens from two 4- to 6-week-old female mice were harvested and disassociated into a single cell suspension. […] The supernatants were collected and quantified for protein content. […]
(§2) Autoradiography of the membranes was performed using Amersham ECL Western blotting detection reagents (Amersham Biosciences). The densities of the protein bands compared with the β-actin protein control were measured with the Image J program provided by the NIH.
(§3) In this experiment, B16 cells and splenocytes isolated from C57BL/6J mice and were incubated with either the medium, medium supplemented with titrated WP1193, medium supplemented with IFN-α, or medium supplemented with both IFN-α and WP1193. […] Semi-quantitative densitometry was used to determine the relative levels of p-STAT3 to STAT3 and β-actin.

[2] = test system: p-STAT3 (Tyr705) in splenocytes; experiment: p-STAT3 immunoblotting in splenocytes; type: cell-based, C57BL/6J mice; details: 2 hours, 5 and 10 μM (FIG. 3B)
Experimental: as §1, §2, §3

melanoma = details: cited from earlier work
[3] = test system: STAT3 in HH, HuT78 and MJ CTCL lines; experiment: STAT3 tyrosine 705 phosphorylation in CTCL lines; type: cell-based, human; details: serum starved 18 hours, stimuli 30 minutes (FIG. 7)
Experimental: To determine whether IFN alpha and beta were able to selectively phosphorylate STAT3 in other cell types. Studies were conducted in a range of other biologically relevant cell types. In these experiments, cells were grown in media supplemented with 10% FBS, and then serum starved for 18 hours and exposed to various stimuli for 30 minutes.

[4] = cited from earlier work
[5] = test system: STAT3 in HaCaT keratinocytes; experiment: pSTAT3 level in HaCaT keratinocytes (MSD chemiluminescent detection); type: cell-based, human
Experimental: Prior to experiments, the DMEM medium was changed to KGM-SFM containing rEGF and bovine pituitary extract for 12 hours, and the cells then exposed to various stimuli for 30 minutes. Cell lysates were extracted in IP lysis buffer were diluted in MSD extraction buffer and 25 uL of the cell lysate containing 10 ug protein was used in the analysis via chemiluminescent detection (MSD Technology). To test for inhibition by WP1220 (WP), cells were pre-incubated with WP1220 prior to the addition of IFN α.

[6] = test system: STAT3 and Jak2 phosphorylation in SUP-T1 lymphoma cell line; experiment: Cytokine signalling in SUP-T1 lymphoma cell line; type: cell-based; details: SUP-T1 lymphoma cell line (data not shown)

Molecule	phosphorylation of p-STAT3 [1]	phosphorylation of p-STAT3 [2]	reduction in the relative relapse risk (melanoma; high-dose type I IFN-α, stage II and III melanoma, adjuvant trials)	melanoma patients with an objective response (melanoma; human, in vivo)	tyrosine phosphorylation of STAT3 (tyrosine 705) [3]	duration of sustained in vivo expression ([4]; after administration of plasmid)	serum level of IFN-α ([4]; single i.v. hydrodynamic injection of 3 μg pORF plasmid encoding murine IFN-α)	STAT3 activation in keratinocytes [5]	Relative level of pSAT3 ([5]; HaCaT cells, stimuli for 30 minutes)	pSTAT3 stimulation (Table E8) ([5]; SFM + IFN α, no inhibitor)	STAT3 and Jak2 phosphorylation [6]
N#C/C(=C\c1cccc(Br)n1)C(=O)N[C@H](c1ccccc1)C1CC1 [WP1193, (S,E)-3-(6-bromopyridin-2-yl)-2-cyano-N-(cyclopropyl(phenyl)methyl)acrylamide]	inhibits the phosphorylation of p-STAT3	inhibits the phosphorylation of p-STAT3									
IFN-α			25-33%	15%	selectively stimulates tyrosine phosphorylation of STAT3	more than 30 days	900 pg/mL	potently induce STAT3 activation	+++++ (+++++=400-500 fold)	+++++ (+++++=10,000-6,000)	potently induce STAT3 but not Jak2 phosphorylation

From patent publication US20130129675A1, “INTERFERON THERAPIES IN COMBINATION WITH BLOCKADE OF STAT3 ACTIVATION” (BOARD OF REGENTS, THE UNIVERSITY OF TEXAS SYSTEM, priority 2009, published 2013)
